From patent US20230120666A1, “EXCIPIENTS PROVIDING STABILIZATION AND ENHANCED WATER SOLUBILIZATION AND THEIR USES” (priority 2020, published 2023)
“Also recorded” adds a separate entry of the source.

Assays:
[1] = Koch et al. 2020, cited from earlier work
[2] = CBD water solubility / solubility enhancement by UV-Visible spectrometry; assay type: physicochemical; settings: for solubility: thermodynamic from solid
Experimental: The General Method used to determine the solubility of CBD is as follows:
Water (1 mL) was added to one of the vials. […] A third vial was prepared with 100 mg of the agent, 1 mL of water, and no CBD for use as a background standard for correcting UV-visible spectra. All three vials were processed (ultrasound) together to minimize variations.
CBD solubility was determined by UV-Visible spectrometry.
Three methods were used for background subtraction: • 1. For agents with very little color, the CBD is seen as a peak on the side of a peak that can be readily measured by drawing a tangent line on the interfering peak to estimate a baseline. This is usable for pure samples, such as the commercial cyclodextrins. • 2. […] For strongly colored agents, small deviations in concentration can overwhelm the CBD signal. In these cases, the full spectra are measured and the standard is multiplied by a weighting factor before subtraction. The weighting factor is adjusted to give close to a zero absorbance at many wavelengths across the difference spectrum and the CBD spectrum is what remains.
CBD concentration is calculated as the absorbance at 274 nm in excess of the retentate absorbance relative to the absorbance of the CBD standard. Abs means absorbance in Table 1.

[3] = as above; assay type: physicochemical; settings: CBD 1 g in 100 mL water, Qsonica Q2000 1 hr at 100% amplitude, no excipient
[4] = In vitro dissolution of Polymer Adducts and Hybrid Excipients; assay type: physicochemical; settings: 0.1 N HCl pH 1.2, SGF pH 1.2, PB pH 6.8, SIF pH 6.8; 37±0.5° C.
Experimental: Simulated Gastric Fluid (SGF pH 1.2), Phosphate Buffer (PB pH 6.8) and Simulated Intestinal Fluid (SIF pH 6.8) as dissolution medium. […] At predetermined time intervals, 1 mL samples were withdrawn and replenished with the same volume of fresh medium. The RSV and CBD content in these samples were determined by using a UV-visible Spectrophotometer (U-3010, Hitachi, Japan) and specific amounts of RSV and CBD dissolved and were monitored and estimated as a function of time.
This multiple, hybrid excipient was then lyophilized and used for dissolution studies.

[5] = test system: healthy male volunteers; assay: In vivo human oral ingestion study of CBD-SupraPlex excipient; settings: for effects experienced within 15-30 min after ingestion: CBD-SupraPlex (Run #181) 35.6 μg/mL in DI water
Experimental: A highly documented “in house” CBD-SupraPlex® human oral ingestion study was performed to further evaluate the SupraPlex® Excipients in humans. This study involved two healthy male volunteers: Subject #1 was […], 5′10″, 190 lbs., […] an experienced CBD/THC consumer, and Subject #2 was […], 5′6″, 160 lbs., a naïve, and a THC/CBD non consumer […]).
The CBD-SupraPlex® excipient samples were prepared under sanitary, GLP conditions. All CBD dose concentrations were confirmed by standard HPLC protocols.
The CBD-SupraPlex® excipient samples used for oral ingestion were administered sequentially in three, 10 mL ingestion portions as clear, transparent DI aqueous solutions. The 1st portion was ingested in a sublingual mode and last two portions were ingested by normal swallowing. The esthetic taste features of CBD-SupraPlex® excipient (pH2), in DI water were: sour, citrus-lemon, (80% lemon-10% salt taste), slight terpene, slippery film like texture, but with no after taste. When used in ginger ale, it gave a very pleasant taste. At pH4, the sourness is eliminated to give a pleasant slight lemon taste.
Test 1: 10 mL containing 35.6 μg/mL of CBD in DI water, sublingual over 15 min. Test 2: 15 min. after Test 1, 10 mL/35.6 μg/mL of CBD in DI water, normal swallow over 15 min. Total CBD ingested=712 μg in 20 mL DI water over 30 min. Test 3: 15 min. after Test 2, repeat of Test 2 Total CBD ingested=1068 μg in 30 mL DI water over 45 min. Test 4: 2 days later, 40 mL/35.6 μg/mL of CBD in DI water, normal swallow before evening sleep. […] Subject #1 could rarely experience more than 4 hr. normal sleeper night, but after Test 4 they took a 35.6 μg/mL of CBD in 40 mL DI water, sublingual before sleep 2 days after Test 4. When taken before bedtime, about 1 mg CBD dose level gave an excellent, sustained 7-8 hr. sleep cycle with a rested, clear-headed wake-up, no fogginess or after effect.

[6] = Storage stability of 20 wt % SupraPlex formulations in sealed plastic vial at RT; assay type: physicochemical; settings: loaded in 20 wt % Run #65 in DI water, pH 2.5±0.5, sealed poly(propylene) vial, 12 months
[7] = literature value, Modasiya et al. 2012; cited from earlier work
[8] = literature value, Chauhan et al.; cited from earlier work
[9] = Excipient assisted resveratrol water solubility enhancement; assay type: physicochemical; settings: water with the Excipients of the invention (PHC), aqueous with cosolvent or surfactant or cyclodextrin, thermodynamic from solid
From the text: They were then examined to determine specific water solubility enhancement properties as a function of excipient composition and reaction parameters used for their syntheses.

C=C(C)[C@@H]1CCC(C)=C[C@H]1c1c(O)cc(CCCCC)cc1O [CBD, cannabidiol]
CBD in water alone ([1]; literature value): 0.0000627 mg/mL | Water Solubility of CBD ([1]; no sonication): 0.0627 µg/mL | increased solubility of CBD ([2]; in the presence of naked 2HPBCD): 2508.7 fold | increased solubility of CBD ([2]; in the presence of naked ACD): 3066.2 fold | increased solubility of CBD ([2]; in the presence of naked GCD): 278.7 fold | increased solubility of CBD ([2]; sonication protocol in DI water, no excipient): 313.6 fold | solubility ([2]; water with the Excipients of the invention, aqueous with cosolvent or surfactant or cyclodextrin, read-out: water solubility of CBD, enhanced): 500 to 15100 µg/mL | solubility ([2]; water, high power sonication, read-out: Water Solubility of CBD): 31 µg/mL | solubility ([2]; water, low power sonication, read-out: Water Solubility of CBD): 0.4 µg/mL | increased solubility of CBD ([2]; with Run #1 retentate (Example 1), baseline not stated): 2717.8 fold | increased solubility of CBD ([2]; with Run #3 retentate (Example 2), baseline not stated): 2673.2 fold | increased solubility of CBD ([2]; with Run #4 retentate (Example 3), baseline not stated): 4843.2 fold | increased solubility of CBD ([2]; with Run #12 insoluble nanosponge suspension (Example 5), baseline not stated): 3797.9 fold | increased solubility of CBD ([2]; with Run #19 retentate (Example 4), baseline not stated): 4634.1 fold | μg-CBD [3]: 31.36 µg | in vitro dissolution performance [4]: saturation and incomplete dissolution profiles; also recorded: insoluble | sustained sleep cycle ([5]; Subject #1, about 1 mg CBD as CBD-SupraPlex (Run #181) before bedtime): 7 to 8 h | effects experienced within 15-30 min after ingestion ([5]; Subject #1, experienced consumer): tingling in fingers, heightened focus, higher energy, relaxed feeling, reduced anxiety, some thirst noted | effects experienced within 15-30 min after ingestion ([5]; Subject #2, naïve non consumer): peaceful, relaxed, reduced anxiety, remained alert/coordinated, enhanced talking, laughing, higher energy movement, then some drowsiness after 1 hr. | solution depletion [6]: essentially no solution depletion

COc1cc(/C=C/C(=O)CC(=O)/C=C/c2ccc(O)c(OC)c2)ccc1O [curcumin]
naked curcumin solubility in DI water [7]: 2.67 µg/mL | solution depletion [6]: essentially no solution depletion

Oc1ccc(C=Cc2cc(O)cc(O)c2)cc1 [resveratrol]
naked resveratrol solubility in DI water [8]: 0.04 µg/mL | in vitro dissolution performance [4]: saturation and incomplete dissolution profiles | solution depletion [6]: essentially no solution depletion | solubility [9]: 5010 to 30600 µg/mL
